Laboratory results published in publication PMC10023259 (Science (New York, N.Y.), 2022).

Tests used:
LYCHOS (GPR155) = target: T1, LYCHOS (GPR155) (Homo sapiens, UniProt Q7Z3F1); assay: [3H]-cholesterol saturation binding, scintillation counting
T1 sequence (Q7Z3F1 1-870): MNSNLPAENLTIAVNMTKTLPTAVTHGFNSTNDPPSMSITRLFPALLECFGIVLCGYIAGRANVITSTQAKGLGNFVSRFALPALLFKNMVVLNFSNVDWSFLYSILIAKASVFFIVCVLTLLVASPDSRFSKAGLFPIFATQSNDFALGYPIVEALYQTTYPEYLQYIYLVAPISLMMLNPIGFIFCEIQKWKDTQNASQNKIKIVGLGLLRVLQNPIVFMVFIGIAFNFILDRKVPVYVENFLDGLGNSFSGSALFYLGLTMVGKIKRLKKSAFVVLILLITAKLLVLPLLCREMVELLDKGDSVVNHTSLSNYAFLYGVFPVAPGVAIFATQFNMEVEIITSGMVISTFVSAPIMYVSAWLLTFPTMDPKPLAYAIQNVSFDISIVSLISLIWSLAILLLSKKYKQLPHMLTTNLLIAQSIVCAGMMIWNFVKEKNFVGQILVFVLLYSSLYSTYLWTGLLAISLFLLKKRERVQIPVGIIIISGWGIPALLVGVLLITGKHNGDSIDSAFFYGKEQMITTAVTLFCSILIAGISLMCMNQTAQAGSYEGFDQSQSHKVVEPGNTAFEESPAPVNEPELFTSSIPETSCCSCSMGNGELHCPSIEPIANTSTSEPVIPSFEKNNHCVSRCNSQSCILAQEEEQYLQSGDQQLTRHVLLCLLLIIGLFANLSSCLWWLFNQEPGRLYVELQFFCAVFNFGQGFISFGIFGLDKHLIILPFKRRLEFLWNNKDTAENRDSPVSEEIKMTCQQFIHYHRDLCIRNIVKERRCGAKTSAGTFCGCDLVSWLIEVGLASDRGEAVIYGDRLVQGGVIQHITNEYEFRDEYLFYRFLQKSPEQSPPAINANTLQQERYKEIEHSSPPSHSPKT

LYCHOS-GATOR1 complex = LYCHOS-GATOR1 complex (Homo sapiens, UniProt Q7Z3F1); assay: FLAG co-immunoprecipitation of GATOR1 with LYCHOS from cholesterol-refed cells; assay type: cell-based
Chain of LYCHOS-GATOR1 complex (O75140 whole entry partner, one chain of several): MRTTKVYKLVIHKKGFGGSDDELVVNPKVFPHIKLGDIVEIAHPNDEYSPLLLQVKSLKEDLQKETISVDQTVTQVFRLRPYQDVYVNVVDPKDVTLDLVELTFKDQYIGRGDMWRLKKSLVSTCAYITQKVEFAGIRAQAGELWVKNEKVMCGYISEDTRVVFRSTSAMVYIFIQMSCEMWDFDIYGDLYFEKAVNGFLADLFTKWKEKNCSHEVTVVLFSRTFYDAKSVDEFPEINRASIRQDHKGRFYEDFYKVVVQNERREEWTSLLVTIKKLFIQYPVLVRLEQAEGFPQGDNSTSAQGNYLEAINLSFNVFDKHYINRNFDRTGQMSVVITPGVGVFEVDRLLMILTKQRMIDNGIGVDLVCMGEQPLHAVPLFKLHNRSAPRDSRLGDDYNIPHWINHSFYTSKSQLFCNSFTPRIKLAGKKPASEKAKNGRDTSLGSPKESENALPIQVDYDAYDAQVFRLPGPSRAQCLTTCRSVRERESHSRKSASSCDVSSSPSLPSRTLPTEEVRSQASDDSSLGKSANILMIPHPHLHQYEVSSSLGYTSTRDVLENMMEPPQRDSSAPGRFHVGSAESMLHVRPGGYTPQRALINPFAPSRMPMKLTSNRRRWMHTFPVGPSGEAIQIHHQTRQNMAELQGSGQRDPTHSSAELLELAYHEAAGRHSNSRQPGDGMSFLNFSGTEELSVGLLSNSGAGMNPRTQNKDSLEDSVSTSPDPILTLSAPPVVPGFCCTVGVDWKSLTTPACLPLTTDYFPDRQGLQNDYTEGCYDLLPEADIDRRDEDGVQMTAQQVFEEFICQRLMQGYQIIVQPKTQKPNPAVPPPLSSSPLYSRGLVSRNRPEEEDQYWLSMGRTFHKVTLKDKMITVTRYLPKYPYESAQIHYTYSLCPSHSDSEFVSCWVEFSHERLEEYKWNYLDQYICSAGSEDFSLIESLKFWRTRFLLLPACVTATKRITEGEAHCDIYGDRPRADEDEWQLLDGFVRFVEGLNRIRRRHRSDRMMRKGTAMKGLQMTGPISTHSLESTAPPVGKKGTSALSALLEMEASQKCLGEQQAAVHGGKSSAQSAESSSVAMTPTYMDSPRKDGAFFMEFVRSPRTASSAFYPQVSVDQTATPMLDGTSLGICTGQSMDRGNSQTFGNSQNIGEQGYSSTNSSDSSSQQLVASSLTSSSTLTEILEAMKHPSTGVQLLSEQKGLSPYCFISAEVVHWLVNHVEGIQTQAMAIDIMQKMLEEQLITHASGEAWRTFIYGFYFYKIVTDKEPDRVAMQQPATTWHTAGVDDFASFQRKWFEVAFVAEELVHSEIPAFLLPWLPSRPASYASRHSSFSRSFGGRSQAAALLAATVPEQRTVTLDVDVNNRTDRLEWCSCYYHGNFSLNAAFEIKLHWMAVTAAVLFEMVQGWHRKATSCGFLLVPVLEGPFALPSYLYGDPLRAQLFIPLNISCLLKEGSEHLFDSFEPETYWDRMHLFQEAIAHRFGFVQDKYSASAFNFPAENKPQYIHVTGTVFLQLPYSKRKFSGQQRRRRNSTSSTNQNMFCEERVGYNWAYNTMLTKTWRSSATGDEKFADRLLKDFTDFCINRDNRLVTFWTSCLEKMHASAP
Chain of LYCHOS-GATOR1 complex (Q8WTW4 whole entry partner, one chain of several): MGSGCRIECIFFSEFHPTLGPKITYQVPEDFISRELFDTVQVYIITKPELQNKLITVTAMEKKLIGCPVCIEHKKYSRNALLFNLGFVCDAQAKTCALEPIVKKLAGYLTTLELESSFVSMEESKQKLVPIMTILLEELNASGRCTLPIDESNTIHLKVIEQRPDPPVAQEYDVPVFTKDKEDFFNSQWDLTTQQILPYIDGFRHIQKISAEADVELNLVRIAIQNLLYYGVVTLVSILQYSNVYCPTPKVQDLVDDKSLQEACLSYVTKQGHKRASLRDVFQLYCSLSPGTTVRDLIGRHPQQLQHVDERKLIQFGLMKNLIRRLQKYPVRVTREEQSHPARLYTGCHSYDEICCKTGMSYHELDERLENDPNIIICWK
Chain of LYCHOS-GATOR1 complex (Q12980 whole entry partner, one chain of several): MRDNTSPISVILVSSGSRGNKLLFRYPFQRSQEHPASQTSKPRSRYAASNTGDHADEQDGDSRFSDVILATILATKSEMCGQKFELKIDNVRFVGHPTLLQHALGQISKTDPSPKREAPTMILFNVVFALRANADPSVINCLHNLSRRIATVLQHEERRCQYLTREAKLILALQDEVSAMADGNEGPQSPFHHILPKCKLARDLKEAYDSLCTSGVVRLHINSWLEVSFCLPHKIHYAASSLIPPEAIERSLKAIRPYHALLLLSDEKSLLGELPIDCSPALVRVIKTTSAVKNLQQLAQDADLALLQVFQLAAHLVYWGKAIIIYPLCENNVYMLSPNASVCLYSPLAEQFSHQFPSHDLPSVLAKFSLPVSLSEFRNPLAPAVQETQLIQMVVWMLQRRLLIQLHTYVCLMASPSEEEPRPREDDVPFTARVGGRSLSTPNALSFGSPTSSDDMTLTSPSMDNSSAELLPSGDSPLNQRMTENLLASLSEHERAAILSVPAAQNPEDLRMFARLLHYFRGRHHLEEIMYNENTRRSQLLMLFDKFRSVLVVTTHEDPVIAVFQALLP

Kd (LYCHOS (GPR155)): 0.1 to 0.2 µM
EC50 (LYCHOS-GATOR1 complex): 31.5 µM
Structure (SMILES): CC(C)CCC[C@@H](C)[C@H]1CC[C@H]2[C@@H]3CC=C4C[C@@H](O)CC[C@]4(C)[C@H]3CC[C@]12C [cholesterol]
